These results are taken from PMC11181328 (Journal of Medicinal Chemistry, 2024).

Each structure is given as a SMILES string. Where only a bound is given, the exact number is not on record here.

One data set deals with male Swiss Webster mice. Put plainly: Warm-water tail immersion assay, agonism (single dose screen and potency). It is filed as in vivo, mouse. The note with it: for ED50: Mus musculus, sc, read-out: potency ED50 [95% CI] mg/kg, 20 min prior to tail withdrawal latency measurement, male Swiss Webster mice; for ED50 / ED75: s.c.; for ED75: warm-water tail immersion; for percent MPE: single dose 10 mg/kg s.c., withdrawal latency 20 min after administration.

The target in the next data set is T1, KOR (Mus musculus, UniProt P33534).
T1 construct: expressed in transfected cells; membrane homogenate
T1 sequence (P33534 whole entry): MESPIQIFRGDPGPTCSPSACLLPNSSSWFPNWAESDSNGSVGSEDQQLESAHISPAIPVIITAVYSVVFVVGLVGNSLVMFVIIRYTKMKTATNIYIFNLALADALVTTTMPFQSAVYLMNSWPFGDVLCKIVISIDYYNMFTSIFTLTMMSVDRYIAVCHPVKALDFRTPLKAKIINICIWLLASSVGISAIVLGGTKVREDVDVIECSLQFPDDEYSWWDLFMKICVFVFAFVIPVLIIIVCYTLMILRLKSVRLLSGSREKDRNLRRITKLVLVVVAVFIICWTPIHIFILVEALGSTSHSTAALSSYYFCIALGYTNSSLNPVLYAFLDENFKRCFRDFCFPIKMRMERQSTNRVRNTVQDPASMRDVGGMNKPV
The data set can be described thus: [35S]-GTPγS functional assay, KOR. It is filed as biochemical. As to conditions: for EC50: mKOR-CHO membranes; for Emax: percent of U50,488 full agonist control. A general note: GTPγS resists hydrolysis and so accumulates on activated G proteins.

A short description of the next data set: in vitro. As to conditions: Sprague-Dawley, rat, s9.
A further data set concerns the target hERG (Homo sapiens, UniProt Q12809). The data set can be described thus: Automated patch-clamp hERG inhibition assay in CHO-hERG cells. (In general: Patch clamp records ionic current or voltage across a cell membrane.)
The subject of data set [1] is male and female Sprague–Dawley rats. As to conditions: intravenous, FR5 schedule of reinforcement, 2 h sessions.
The target of another data set is hERG (Kv11.1) (Homo sapiens, UniProt Q12809). The data set can be described thus: Automated patch-clamp hERG inhibition assay in CHO-hERG cells.
Sequence of hERG (Kv11.1) (Q12809 whole entry): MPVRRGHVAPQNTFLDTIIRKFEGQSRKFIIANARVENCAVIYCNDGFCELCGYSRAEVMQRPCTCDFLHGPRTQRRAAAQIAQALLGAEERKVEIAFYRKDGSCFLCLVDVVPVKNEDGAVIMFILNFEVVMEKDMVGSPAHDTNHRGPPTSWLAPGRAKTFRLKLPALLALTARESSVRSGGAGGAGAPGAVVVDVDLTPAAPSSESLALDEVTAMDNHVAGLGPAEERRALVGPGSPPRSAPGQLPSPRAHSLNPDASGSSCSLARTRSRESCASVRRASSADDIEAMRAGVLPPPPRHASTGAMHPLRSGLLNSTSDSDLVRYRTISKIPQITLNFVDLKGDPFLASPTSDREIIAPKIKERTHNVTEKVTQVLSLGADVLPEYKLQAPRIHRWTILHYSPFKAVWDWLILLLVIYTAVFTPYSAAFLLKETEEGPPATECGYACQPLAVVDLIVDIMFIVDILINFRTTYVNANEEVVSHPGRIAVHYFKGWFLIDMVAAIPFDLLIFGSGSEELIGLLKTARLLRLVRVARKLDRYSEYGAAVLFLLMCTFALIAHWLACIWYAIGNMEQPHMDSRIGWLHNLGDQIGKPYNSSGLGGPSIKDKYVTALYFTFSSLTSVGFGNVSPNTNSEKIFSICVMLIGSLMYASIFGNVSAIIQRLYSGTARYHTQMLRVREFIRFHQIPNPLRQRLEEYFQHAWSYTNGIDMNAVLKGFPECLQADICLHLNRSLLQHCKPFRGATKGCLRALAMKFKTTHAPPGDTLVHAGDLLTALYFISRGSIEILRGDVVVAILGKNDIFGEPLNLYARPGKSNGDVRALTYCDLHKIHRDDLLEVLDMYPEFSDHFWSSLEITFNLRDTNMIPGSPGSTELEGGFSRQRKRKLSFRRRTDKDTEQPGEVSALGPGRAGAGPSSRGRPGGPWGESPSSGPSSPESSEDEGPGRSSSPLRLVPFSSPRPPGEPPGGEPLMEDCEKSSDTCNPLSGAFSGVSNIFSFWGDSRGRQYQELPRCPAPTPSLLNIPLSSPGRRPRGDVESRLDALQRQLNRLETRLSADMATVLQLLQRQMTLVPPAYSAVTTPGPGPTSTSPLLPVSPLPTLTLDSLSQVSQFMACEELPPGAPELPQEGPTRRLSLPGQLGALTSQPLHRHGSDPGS

By EC50 is commonly meant the concentration that produces a half-maximal response. For orientation: Emax means the greatest response seen or fitted, relative to the assay's reference. The half-life is the time in which the quantity being followed falls by half. Usually microsomal CLint stands for a measure of how fast metabolising enzymes remove a compound, apart from limits set by blood flow. Lower therefore signals slow turnover. What is called IC50 is the midpoint of a concentration-inhibition curve. Low readings indicate inhibition by little substance, high ones a need for much substance.

Sequence of hERG (Q12809 whole entry): as above

For the molecule `CN(C(=O)/C=C/c1ccco1)[C@@H]1CC[C@@]2(O)[C@H]3Cc4ccc(O)c5c4[C@@]2(CCN3CC2CC2)[C@H]1O5.Cl` [Compound 23, 17-Cyclopropylmethyl-3,14β-dihydroxy-4,5α-epoxy-6β-[(2E)-3′-(furan-2″-yl)-N-methylprop-2-enamido]morphinan Hydrochloride], in the data set on male Swiss Webster mice, the ED50 was 0.01 mg/kg, the ED75 came to 0.05 mg/kg and the “percent MPE” value was at least 80%. Moreover, on KOR, the EC50 was determined as 0.14 ± 0.02 nM and the maximum response (Emax) was 106.5 ± 0.7%. Besides, in the data set “in vitro”, the half-life is above 2 h and the intrinsic clearance (microsomal CLint) was below 5.8 µL/min/mg. On hERG, this molecule gave an IC50 of 1090 nM. The “reinforcing effect (number of infusions earned versus saline)” value in data set [1] is “no dose maintained a significant number of infusions earned above saline”.

As to `CN(C(=O)/C=C/c1ccco1)[C@H]1CC[C@@]2(O)[C@H]3Cc4ccc(O)c5c4[C@@]2(CCN3CC2CC2)[C@H]1O5.Cl` [Compound 21, 17-Cyclopropylmethyl-3,14β-dihydroxy-4,5α-epoxy-6α-[(2E)-3′-(furan-2″-yl)-N-methylprop-2-enamido]morphinan Hydrochloride], in the data set on male Swiss Webster mice, the ED50 is 0.051 mg/kg, the ED75 came out at 0.1 mg/kg and the “percent MPE” value is at least 80%. On KOR, this molecule had an EC50 of 0.04 nM and an Emax of 107 ± 2.6%. In “in vitro”, this molecule yielded a half-life at 1 h, 1 µM of 1.16 h and an intrinsic clearance (microsomal CLint) at 1 h, 1 µM of 10.1 µL/min/mg. On hERG (Kv11.1), the IC50 came out at 2510 nM. Besides, the “reinforcing effect (number of infusions earned versus saline)” value in data set [1] is recorded as “no dose maintained a significant number of infusions earned above saline”.
